# Test results: EP4745134A1 (Jiangsu Yahong Meditech Co., Ltd., priority 2023, dated 2025)
# pIC50: −log10 of the molar value.
# Target: PRMT5-MTA (Homo sapiens, UniProt O14744)
# Test: Enzymatic inhibitory activity against PRMT5-MTA (AlphaScreen)
# Assay type: biochemical
# Conditions: read-out: IC50
# Method: The AlphaScreen method was used to detect the enzymatic inhibitory activity of the compounds against PRMT5-MTA. 1 x Methyltransferase assay buffer IV (signalchem) was prepared as a solution for diluting each component for the enzymatic reaction. PRMT5/[…] protein of a final concentration of 1 nM, […] (sigma) of a final concentration of 1 uM and S-(5'-adenosine)-L-methionine chloride dihydrochloride (sigma) of a final concentration of 2.5 uM were mixed, then incubated for 30 minutes at room temperature, and transferred to an OptiPlate-384 well plate (PerkinElmer) at a volume of 6 uL per well, for which no PRMT5/[…] protein was added to the control wells. The test compound was 3-fold serially diluted into 10 concentrations, starting from a concentration of 1000 nM, and the series of diluted compounds were added to all wells except the control wells in the well plate using Tecan D300e. The well plate was subjected to centrifugation for 1 minute at 1000 rpm in a centrifuge, and then incubated for 15 minutes at 23°C. Histone H4 substrate of a final concentration of 5 nM was added to the well plate at 4 uL per well, centrifuged for 1 minute at 1000 rpm in a centrifuge, then placed in an incubator at 23°C and reacted for 45 minutes. Anti-histone H4 (symmetrical dimethyl R3) antibody (Abcam) was incubated with 50 ug/mL of AlphaScreen Protein A Acceptor beads (PerkinElmer) for 10 minutes at room temperature beforehand, and then added to the well plate at a volume of 10 uL per well. The mixture was reacted for 1 hour at room temperature. 50 Ug/mL of AlphaScreen Streptavidin Donor beads (PerkinElmer) was added at 10 uL per well, and reacted for 1 hour at room temperature. The signal values were detected for the well plate through the Alpha method using an Envision multifunctional microplate-reader, and the IC50 values for inhibition of the compounds on PRMT5/MET50 enzyme activity were calculated in Xlfit 5.0 software. Table 1. IC50 values for inhibition of the compounds on PRMT5+MTA enzyme activity
# PRMT5-MTA, sequence (O14744 whole entry): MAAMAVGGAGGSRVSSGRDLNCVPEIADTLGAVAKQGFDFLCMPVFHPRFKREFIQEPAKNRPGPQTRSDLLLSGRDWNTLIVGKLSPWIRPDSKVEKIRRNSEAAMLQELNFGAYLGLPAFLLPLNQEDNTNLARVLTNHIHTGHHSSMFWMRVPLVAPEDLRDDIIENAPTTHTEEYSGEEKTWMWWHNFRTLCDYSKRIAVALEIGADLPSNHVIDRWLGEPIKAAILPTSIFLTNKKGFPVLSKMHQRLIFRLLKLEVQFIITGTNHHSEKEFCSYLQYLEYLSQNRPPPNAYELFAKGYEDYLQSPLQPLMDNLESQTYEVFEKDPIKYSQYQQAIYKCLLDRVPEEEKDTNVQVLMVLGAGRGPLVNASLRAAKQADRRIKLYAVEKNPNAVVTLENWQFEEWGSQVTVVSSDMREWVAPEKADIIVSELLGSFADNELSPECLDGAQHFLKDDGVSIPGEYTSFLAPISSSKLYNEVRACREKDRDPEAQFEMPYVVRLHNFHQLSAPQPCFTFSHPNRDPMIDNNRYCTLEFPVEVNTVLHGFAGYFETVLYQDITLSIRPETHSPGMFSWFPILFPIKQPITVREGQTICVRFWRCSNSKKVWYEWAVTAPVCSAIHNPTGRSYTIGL
# PRMT5-MTA, sequence (Q9BQA1 whole entry partner): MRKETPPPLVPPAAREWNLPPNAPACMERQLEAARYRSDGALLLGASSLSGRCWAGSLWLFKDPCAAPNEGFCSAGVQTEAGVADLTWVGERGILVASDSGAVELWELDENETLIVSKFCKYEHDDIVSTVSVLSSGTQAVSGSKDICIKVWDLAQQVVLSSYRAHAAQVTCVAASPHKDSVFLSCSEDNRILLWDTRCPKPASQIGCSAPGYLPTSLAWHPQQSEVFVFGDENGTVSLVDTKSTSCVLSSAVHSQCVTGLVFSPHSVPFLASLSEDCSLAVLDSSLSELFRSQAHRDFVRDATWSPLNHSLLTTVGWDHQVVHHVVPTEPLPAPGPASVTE
row,SMILES,pIC50
1,"Cc1cc2nc(N)c3cnn(C)c3c2cc1C(=O)N(C)N1CCc2ncccc21 [Compound 114, 4-amino-N-(2,3-dihydro-1H-pyrrolo[3,2-b]pyridin-1-yl)-N,1,7-trimethyl-1H-pyraz olo[4,3-c]quinoline-8-carboxamide]",8.40
2,"Cc1cc2cc(C(=O)N(Cc3ccc(-c4ccc(N(C)C5CC5)nc4)cn3)N(C)c3ncccn3)ccc2nc1N [Compound 247, 2-amino-N-((6'-(cyclopropyl(methyl)amino)-[3,3'-bipyridine]-6-yl)methyl)-N',3-di methyl-N'-(pyrimidin-2-yl)quinoline-6-carbohydrazide]",8.11
3,"Cc1ncsc1-c1ccc(CN(C(=O)c2ccc3nc(N)c(CF)cc3c2)N(c2ncccn2)C2CC2)nc1 [Compound 324, 2-amino-N'-cyclopropyl-3-(fluoromethyl) -N-((5-(4-methylthiazol-5-yl)pyridin-2-yl)methyl)-N'-(pyrimidin-2-yl)quinoline-6-carbohydrazide]",8.36
4,"Cc1cc2cc(C(=O)N(Cc3ccccn3)N(C)c3ncccn3)ccc2nc1N [Example 9, 2-amino-N',3-dimethyl-N-(pyridin-2-ylmethyl)-N'-(pyrimidin-2-yl)quinoline-6-carbohydrazide]",8.49
5,"Cc1cc2nc(N)c3cnn(C)c3c2cc1C(=O)N(Cc1ccc(C(F)(F)F)cn1)N(C)c1ncccn1 [Example 13, 4-amino-N',1,7-trimethyl-N'-(pyrimidin-2-yl)-N-((5-(trifluoromethyl)pyridin-2-yl)methyl)-1H-pyrazolo[4,3-c]quinoline-8-c arbohydrazide]",8.40
6,"Cc1cc2cc(C(=O)N(Cc3ccc(C(F)(F)F)cn3)N(C)c3cc(C(F)(F)F)ccn3)ccc2nc1N [Example 43, 2-amino-N',3-dimethyl-N'-(4-(trifluoromethyl)pyridin-2-yl)-N-((5-(trifluoromethyl)pyridin-2-yl)methyl)quinoline-6-carbohydrazide]",8.42
7,"Cc1cc2cc(C(=O)N(Cc3ccc(C(F)(F)F)cn3)N(C)c3c(F)cccc3C(F)(F)F)ccc2nc1N [Example 44, 2-amino-N'-(2-fluoro-6-(trifluoromethyl)phenyl)-N',3-dimethyl-N-((5-(trifluoromethyl)pyridin-2-yl)methyl)quinoline-6-car bohydrazide]",8.72
8,"Cc1cc2cc(C(=O)N(Cc3ccc(C(F)(F)F)cn3)N(C)c3nccc4ccccc34)ccc2nc1N [Example 45, 2-amino-N'-(isoquinol-1-yl)-N',3-dimethyl-N-((5-(trifluoromethyl)pyridin-2-yl)methyl)quinoline-6-carbohydrazide]",8.51
9,"CN(c1ccc(C(F)(F)F)cn1)N(CC(F)(F)F)C(=O)c1ccc2nc(N)c3c(c2c1)COC3 [Example 54, 4-amino-N'-methyl-N-(2,2,2-trifluoroethyl)-N'-(5-(trifluoromethyl)pyridin-2-yl)-1,3-dihydrofuro[3,4-c]quinoline-8-carbohydrazide]",7.80
10,"CN(C(=O)c1ccc2nc(N)c3c(c2c1)COC3)N(C)c1ccc(C(F)(F)F)cn1 [Example 55, 4-amino-N,N'-dimethyl-N'-(5-(trifluoromethyl)pyridin-2-yl)-1,3-dihydrofuro[3,4-c]quinoline-8-carbohydrazide]",8.34
11,"Cc1cc2cc(C(=O)N(Cc3ccc(C(F)(F)F)cn3)N(C)c3ncc(C(F)(F)F)cn3)ccc2nc1N [Example 77, 2-amino-N',3-dimethyl-N-((5-(trifluoromethyl)pyridin-2-yl)methyl)-N'-(5-(trifluor omethyl)pyrimidin-2-yl)quinoline-6-carbohydrazide]",8.96

# Continued, values first:
row,pIC50,SMILES
1,8.72,"Cc1cc(N)nc2ccc(C(=O)N(Cc3ccc(C(F)(F)F)cn3)N(C)c3ncccn3)cc12 [Compound 30, 2-amino-N',4-dimethyl-N'-(pyrimidin-2-y 1)-N-((5-(trifluoromethyl)pyridin-2-yl)methyl)quinoline-6-carbohydrazide]"
2,8.70,"COCCN(c1ncccn1)N(Cc1ccc(C(F)(F)F)cn1)C(=O)c1ccc2nc(N)c(C)cc2c1 [Example 4, 2-amino-N'-(2-methoxyethyl)-3-methyl-N'-(pyrimidin-2-yl)-N-((5-(trifluoromethyl)pyridin-2-yl)methyl)quinoline-6-carbohydrazide]"
3,9.00,"CN(c1ncccn1)N(Cc1ccc(C(F)(F)F)cn1)C(=O)c1ccc2nc(N)c3cnn(C)c3c2c1 [Example 11, 4-amino-N',1-dimethyl-N'-(pyrimidin-2-y 1)-N-((5-(trifluoromethyl)pyridin-2-yl)methyl)-1H-pyrazolo[4,3-c]quinoline-8-carb ohydrazide]"
4,8.11,"CN(c1ncccn1)N(Cc1ccc(C(F)(F)F)cn1)C(=O)c1ccc2nc(N)c3c(c2c1)COC3 [Example 12, 4-amino-N'-methyl-N'-(pyrimidin-2-yl)-N-((5-(trifluoromethyl)pyridin-2-yl)methyl)-1,3-dihydrofuro[3,4-c]quinoline-8-car bohydrazide]"
5,8.70,"CN(c1ncccn1)N(Cc1ccc(C(F)(F)F)cn1)C(=O)c1cc2c(cc1F)nc(N)c1cnn(C)c12 [Example 14, 4-amino-7-fluoro-N',1-dimethyl-N'-(pyrimidin-2-yl)-N-((5-(trifluoromethyl)pyridin-2-yl)methyl)-1H-pyrazolo[4,3-c]quinoline-8-carbohydrazide]"
6,8.15,"CN(c1ncccn1)N(Cc1ccc(C(F)(F)F)cn1)C(=O)c1cc2c(cc1Cl)nc(N)c1cnn(C)c12 [Example 17, 4-amino-7-chloro-N',1-dimethyl-N'-(pyrimidin-2-yl)-N-((5-(trifluoromethyl)pyridin-2-yl)methyl)-1H-pyrazolo[4,3-c]quinoline-8-carbohydrazide]"
7,8.40,"Cc1cc2cc(C(=O)N(Cc3ccc(C(F)(F)F)cn3)n3cnc4cccnc43)ccc2nc1N [Example 27, 2-amino-N-(3H-imidazo[4,5-b]pyridin-3-yl)-3-methyl-N-((5-(trifluoromethyl)pyridin-2-yl)methyl)quinoline-6-carboxamide]"
8,8.80,"CN(c1ncccn1)N(Cc1ccc(C(F)(F)F)cn1)C(=O)c1ccc2nc(N)cc(C3CC3)c2c1 [Example 29, 2-amino-4-cyclopropyl-N'-methyl-N'-(pyrimidin-2-yl)-N-((5-(trifluoromethyl)pyridin-2-yl)methyl)quinoline-6-carbohydrazide]"
9,8.46,"CN(C(=O)c1cc2c(cc1F)nc(N)c1cnn(C)c12)N1CCc2cc(C(F)(F)F)cnc21 [Example 31, 4-amino-7-fluoro-N,1-dimethyl-N-(5-(trifluoromethyl)-2,3-dihydro-1H-pyrrolo[2,3-b]pyridin-1-yl)-1H-pyrazolo[4,3-c]quinoline-8-carboxamide]"
10,8.46,"CN(C(=O)c1cc2c(cc1F)nc(N)c1cnn(C)c12)N(C)c1ncc(C(F)(F)F)cc1F [Example 37, 4-amino-7-fluoro-N'-(3-fluoro-5-(trifluor omethyl)pyridin-2-yl)-N,N',1-trimethyl-1 H-pyrazolo[4,3-c]quinoline-8-carbohydrazide]"
11,8.41,"Cc1cc2cc(C(=O)N(Cc3ncccc3C(F)(F)F)N(C)c3ncccn3)ccc2nc1N [Example 41, 2-amino-N',3-dimethyl-N'-(pyrimidin-2-yl)-N-((3-(trifluoromethyl)pyridin-2-yl)methyl)quinoline-6-carbohydrazide]"
12,8.48,"Cc1cc2cc(C(=O)N(Cc3ccc(F)cn3)N(C)c3ncccn3)ccc2nc1N [Example 71, 2-amino-N-((5-fluoropyridin-2-yl)methyl)-N',3-dimethyl-N'-(pyrimidin-2-yl)quin oline-6-carbohydrazide]"
13,8.01,"Cc1cc2cc(C(=O)N(Cc3ccc(C(F)(F)F)cn3)N(C)c3cccnn3)ccc2nc1N [Example 79, 2-amino-N',3-dimethyl-N'-(pyridazin-3-yl)-N-((5-(trifluoromethyl)pyridin-2-yl)methyl)quinoline-6-carbohydrazide]"

# Tested on: HCT116 MTAP KO cells
# Test: Inhibitory activity against cell proliferation (CellTiter Glo, 6 days), HCT116 MTAP KO
# Assay type: cell-based
# Conditions: Homo sapiens, HCT-116, 144 h, HCT116 MTAP KO cells, 6 days, CellTiter Glo; read-out: HCT116 MTAP KO IC50
# Method: HCT116-WT (ATCC, CCL-247) and HCT116 MTAP KO (Nanjing Cobioer, CBP75002) cells were seeded into white low-transparency sterile 96-well cell culture plates at a density of 250 cells per well respectively, and the culture medium was McCoy's 5A Medium+10% FBS. The plates were placed under the condition of 37°C and 5% CO2 to be cultured overnight. The cells were treated with 4-fold serially diluted compounds of 8 concentration points starting at an initial concentration of 10000 nM, and the last two columns were used as control wells to which only DMSO was added. The drug-treated cells were further cultured for 6 days. On day 7, CellTiter Glo® reagent was added at 50 uL per well, and after reaction under shaking for 10 minutes at room temperature, the chemiluminescence signals were detected for the well plates through the chemiluminescence detection method using a BIOTEK H1 multifunctional microplate-reader. The IC50 values for inhibition of the compounds on cell viability were calculated in X1fit 5.0 software. Table 2. IC50 values for inhibition of the compounds on HCT116 MTAP KO/WT cell growth
row,pIC50,SMILES
1,< 5.00,"CN(c1ncccn1)N(Cc1ccc(C(F)(F)F)cn1)C(=O)c1ccc2c(c1)nc(N)n2C [Example 36, 2-amino-N',1-dimethyl-N'-(pyrimidin-2-yl)-N-((5-(trifluoromethyl)pyridin-2-yl)methyl)-1H-benzo[d]imidazole-5-carbohydrazide]"
